In US7728142B2, “3-methanesulfonylquinolines as GABAB enhancers” (Hoffmann-La Roche Inc., priority 2005, dated 2010):
Read-outs that look alike come from different tables or passages of the source.

Tests used:
human GABABR1aR2a [1] = target: T1, human GABABR1aR2a (Homo sapiens, UniProt O75899+Q9UBS5); assay: Intracellular Ca2+ mobilization assay (FLIPR), enhancer concentration-response in presence of 10 nM GABA; assay type: cell-based; details: CHO-GABABR1aR2a-Gα16 cell; for Emax: enhancer 0.001-30 μM in presence of 10 nM GABA (EC10), read-out: Emax (%) at 10 nM GABA alone = 0% 10 μM GABA alone = 100%; for EC50: in presence of 10 nM GABA (EC10)
T1 construct: expressed in transfected cells
Method: (§1) Intracellular Ca^2+ Mobilization Assay
(§2) Chinese Hamster Ovary (CHO) cells stably expressing human GABABR1aR2a and Gα16 were seeded at 5×10^4 cells/well in the poly-D-lysine treated, 96-well, black/clear-bottomed plates (BD Biosciences, Palo Alto, Calif.). 24 h later, the cells were loaded for 90 min at 37° C. with 4 μM Flou-4 acetoxymethyl ester (Catalog No. F-14202, Molecular Probes, Eugene, Oreg.) in loading buffer (1×HBSS, 20 mM HEPES, 2.5 mM Probenecid). Hanks' Balanced Salt Solution (HBSS) (10×) (catalog No. 14065-049) and HEPES (1M) (catalog No. 15630-056) were purchased from Invitrogen, Carlsbad, Calif. Probenecid (250 mM) (catalog No. P8761) was from Sigma, Buchs, Switzerland. The cells were washed five times with loading buffer to remove excess dye and intracellular calcium mobilization, [Ca^2+] was measured using a Fluorometric Imaging Plate Reader (FLIPR, Molecular Devices, Menlo Park, Calif.) as described previously (Porter et al., Br. J. Pharmacol., 128, 13-20, 1999). The enhancers were applied 15 min before the application of the GABA. For GABA shift assay, concentration-response curves of GABA (0.0003-30 μM) were determined in the absence and presence of 10 μM enhancer. The GABA-shift is defined as Log [EC50 (GABA+10 μM enhancer)/EC50 (GABA alone)]. The % maximum enhancing effect (% Emax) and potency (EC50 value) of each enhancer was determined from concentration-response curve of the enhancer (0.001-30 μM) in the presence of 10 nM GABA (EC10). Responses were measured as peak increase in fluorescence minus basal, normalized to the maximal stimulatory effect induced by 10 μM GABA alone (considered 100%) and 10 nM GABA alone (considered 0%). The data were fitted with the equation Y=100+(Max−100)/(1+(EC50/[drug])^n) where Max is the maximum effect, EC50 the concentration eliciting a half-maximum effect and n the Hill slope.

human GABABR1aR2a [2] = target: T1, human GABABR1aR2a; assay: GABA shift assay (Ca2+ mobilization, GABA curves with and without 10 μM enhancer); assay type: cell-based; details: CHO-GABABR1aR2a-Gα16 cell
Method: as §1, §2

[3] = tested on: cocaine self-administration; details: rats; cited from earlier work
GABABR1R2 = GABABR1R2 (Homo sapiens, UniProt O75899+Q9UBS5); details: absence of GABA; cited from earlier work
[4] = tested on: Gastro-Esophageal Reflux Disease; details: preclinical; cited from earlier work
[5] = in vivo; cited from earlier work
symptoms of PTSD = details: small group of veterans with chronic, combat-related PTSD; cited from earlier work
prepulse inhibition = details: rat; cited from earlier work
[6] = tested on: panic attacks and symptoms of anxiety; details: panic disorder patients; Hamilton, Zung anxiety scales, Katz-R nervousness subscale; cited from earlier work
[7] = PO, cited from earlier work
anxiety [8] = details: cited from earlier work
cognition performance = details: passive avoidance, mice and rats; cited from earlier work
anxiety [9] = details: elevated plus maze (rat), elevated zero maze (mice and rats), stress-induced hyperthermia (mice); cited from earlier work

T1 sequence (Q9UBS5 15-961 limits assumed): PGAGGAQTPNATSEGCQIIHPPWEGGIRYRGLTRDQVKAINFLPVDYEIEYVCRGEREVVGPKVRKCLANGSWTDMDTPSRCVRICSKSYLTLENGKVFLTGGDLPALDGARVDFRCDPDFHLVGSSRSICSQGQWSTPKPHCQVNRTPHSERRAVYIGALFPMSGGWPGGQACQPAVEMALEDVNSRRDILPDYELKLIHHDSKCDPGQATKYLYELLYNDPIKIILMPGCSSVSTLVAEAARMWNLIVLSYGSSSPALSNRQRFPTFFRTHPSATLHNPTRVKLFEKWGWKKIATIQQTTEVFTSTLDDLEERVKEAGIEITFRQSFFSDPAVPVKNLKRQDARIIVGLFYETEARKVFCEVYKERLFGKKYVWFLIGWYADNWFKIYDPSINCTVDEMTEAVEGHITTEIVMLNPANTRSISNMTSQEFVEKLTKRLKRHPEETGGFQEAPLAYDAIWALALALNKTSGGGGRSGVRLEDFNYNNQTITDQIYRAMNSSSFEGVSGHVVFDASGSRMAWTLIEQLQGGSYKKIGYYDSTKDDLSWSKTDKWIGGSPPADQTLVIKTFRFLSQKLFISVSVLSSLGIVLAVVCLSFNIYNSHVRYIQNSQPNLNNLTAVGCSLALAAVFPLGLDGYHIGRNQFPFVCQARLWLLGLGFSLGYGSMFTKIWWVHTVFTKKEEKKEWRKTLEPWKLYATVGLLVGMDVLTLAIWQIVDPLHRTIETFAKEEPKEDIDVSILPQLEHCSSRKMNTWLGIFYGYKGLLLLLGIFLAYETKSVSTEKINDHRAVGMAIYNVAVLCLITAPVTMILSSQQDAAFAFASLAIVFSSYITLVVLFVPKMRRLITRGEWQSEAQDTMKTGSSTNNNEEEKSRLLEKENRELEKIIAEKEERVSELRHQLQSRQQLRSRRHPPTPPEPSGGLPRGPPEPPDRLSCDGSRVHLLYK
T1 sequence (O75899 42-941): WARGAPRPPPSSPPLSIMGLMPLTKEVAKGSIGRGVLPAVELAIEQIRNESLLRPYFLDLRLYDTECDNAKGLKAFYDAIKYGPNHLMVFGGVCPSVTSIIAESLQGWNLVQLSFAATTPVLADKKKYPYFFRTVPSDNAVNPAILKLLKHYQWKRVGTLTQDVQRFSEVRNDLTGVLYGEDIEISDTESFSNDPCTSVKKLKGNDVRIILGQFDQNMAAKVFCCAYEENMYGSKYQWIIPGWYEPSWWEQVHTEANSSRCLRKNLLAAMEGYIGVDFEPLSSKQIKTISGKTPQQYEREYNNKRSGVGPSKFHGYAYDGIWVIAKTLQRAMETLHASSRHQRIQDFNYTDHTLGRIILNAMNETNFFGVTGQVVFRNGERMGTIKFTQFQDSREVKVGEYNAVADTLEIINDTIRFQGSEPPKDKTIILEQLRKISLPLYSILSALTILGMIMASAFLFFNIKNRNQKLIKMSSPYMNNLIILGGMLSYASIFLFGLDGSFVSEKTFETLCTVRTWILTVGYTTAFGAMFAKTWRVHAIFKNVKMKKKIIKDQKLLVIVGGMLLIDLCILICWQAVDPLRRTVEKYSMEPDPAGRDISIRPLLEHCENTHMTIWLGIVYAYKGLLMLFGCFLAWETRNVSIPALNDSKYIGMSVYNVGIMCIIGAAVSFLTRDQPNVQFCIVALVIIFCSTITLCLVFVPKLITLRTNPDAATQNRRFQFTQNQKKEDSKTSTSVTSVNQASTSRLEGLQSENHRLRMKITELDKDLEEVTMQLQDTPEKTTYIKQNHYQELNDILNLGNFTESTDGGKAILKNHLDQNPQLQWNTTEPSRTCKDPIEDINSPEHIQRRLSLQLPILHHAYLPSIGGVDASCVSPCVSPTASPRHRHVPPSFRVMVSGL
Sequence of GABABR1R2 (Q9UBS5 20-961): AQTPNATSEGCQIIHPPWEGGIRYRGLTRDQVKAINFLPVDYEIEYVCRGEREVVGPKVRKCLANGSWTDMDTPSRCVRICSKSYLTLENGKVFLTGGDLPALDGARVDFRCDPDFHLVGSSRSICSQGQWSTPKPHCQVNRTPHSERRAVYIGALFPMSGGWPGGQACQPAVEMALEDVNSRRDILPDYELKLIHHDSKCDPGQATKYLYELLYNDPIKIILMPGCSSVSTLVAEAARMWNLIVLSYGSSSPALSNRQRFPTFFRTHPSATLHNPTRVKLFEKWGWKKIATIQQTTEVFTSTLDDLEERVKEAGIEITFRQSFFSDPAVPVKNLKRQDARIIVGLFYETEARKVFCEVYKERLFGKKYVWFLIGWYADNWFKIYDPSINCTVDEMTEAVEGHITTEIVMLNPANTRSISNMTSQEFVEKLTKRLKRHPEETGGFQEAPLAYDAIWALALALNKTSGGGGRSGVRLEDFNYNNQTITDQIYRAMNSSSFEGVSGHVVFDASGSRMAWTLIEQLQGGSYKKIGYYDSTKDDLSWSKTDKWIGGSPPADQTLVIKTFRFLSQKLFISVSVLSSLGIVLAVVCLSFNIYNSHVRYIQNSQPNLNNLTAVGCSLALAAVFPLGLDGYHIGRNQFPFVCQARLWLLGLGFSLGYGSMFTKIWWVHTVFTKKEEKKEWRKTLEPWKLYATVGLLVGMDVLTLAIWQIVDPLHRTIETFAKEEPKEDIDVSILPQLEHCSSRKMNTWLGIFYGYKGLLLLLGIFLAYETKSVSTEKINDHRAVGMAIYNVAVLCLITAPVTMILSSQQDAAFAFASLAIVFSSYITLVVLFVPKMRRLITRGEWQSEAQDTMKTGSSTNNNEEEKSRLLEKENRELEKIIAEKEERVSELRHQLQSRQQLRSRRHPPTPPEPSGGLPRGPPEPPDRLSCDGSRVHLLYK
Sequence of GABABR1R2 (O75899 42-941): as the sequence (O75899 42-941) above

Emax (human GABABR1aR2a [1])	EC50 (human GABABR1aR2a [1])	GABA shift Log [EC50(GABA + 10 μM cp)/EC50(GABA alone)] (human GABABR1aR2a [2])	Compound	also measured
37%	2.1 µM	−0.45	Cc1nc2ccc(Br)cc2c(-c2ccc(F)cc2)c1S(C)(=O)=O [Example 14, 6-Bromo-4-(4-fluoro-phenyl)-3-methanesulfonyl-2-methyl-quinoline]	–
26%	0.8 µM	−0.8	Cc1nc2ccc(I)cc2c(N2CCC[C@@H](O)C2)c1S(C)(=O)=O [Example 11, (R)-1-(6-Iodo-3-methanesulfonyl-2-methyl-quinolin-4-yl)-piperidin-3-ol]	–
48%	0.6 µM	−1.2	Cc1nc2ccc(I)cc2c(N2CCCCC2)c1S(C)(=O)=O [Example 9, 6-Iodo-3-methanesulfonyl-2-methyl-4-piperidin-1-yl-quinoline]	–
30%	2.1 µM	−0.4	Cc1nc2ccc(I)cc2c(N2CCOCC2)c1S(C)(=O)=O [Example 5, 6-Iodo-3-methanesulfonyl-2-methyl-4-morpholin-4-yl-quinoline]	–

More lines, now with the values behind:

Compound	Emax (human GABABR1aR2a [1])	EC50 (human GABABR1aR2a [1])	GABA shift Log [EC50(GABA + 10 μM cp)/EC50(GABA alone)] (human GABABR1aR2a [2])	also measured
CC(C)(CO)Cc1cc(C(C)(C)C)c(O)c(C(C)(C)C)c1 [CGP7930, 2,6-di-tert-butyl-4-(3-hydroxy-2,2-dimethyl-propyl)-phenol]	–	–	–	decrease of cocaine self-administration [3]: effective at decreasing cocaine self-administration; effect on their own at GABAB receptors (GABABR1R2): no effect on their own; efficacy in GERD [4]: found to be effective
Cc1nc2ccc(OC(F)(F)F)cc2c(-c2ccccc2)c1S(C)(=O)=O [Example 1, 3-Methanesulfonyl-2-methyl-4-phenyl-6-trifluoromethoxy-quinoline]	56%	0.85 µM	−0.7	–
NCC(CC(=O)O)c1ccc(Cl)cc1 (stereo not drawn) [Baclofen, β-chlorophenyl GABA]	–	–	–	blood-brain-barrier penetration [5]: poor blood-brain-barrier penetration; treatment of PTSD (symptoms of PTSD): effective and well-tolerated treatment; reversal of reduction in prepulse inhibition induced by dizocilpine (prepulse inhibition): able to reverse the reduction in prepulse inhibition; reduction of number of panic attacks and symptoms of anxiety [6]: significantly effective; effect on spontaneous locomotor activity, rotarod, body temperature and traction test ([7]; 2.5-15 mg/kg): showed these side effects
CSc1nc(NC2CCCC2)c([N+](=O)[O-])c(NC2CCCC2)n1 [GS39783, N,N_-dicyclopentyl-2-methylsulfanyl-5-nitro-pyrimidine-4,6-diamine]	–	–	–	tolerance after chronic treatment (anxiety [8]; 21 days, 10 mg/kg, P.O., once daily): No tolerance; anxiolytic effects in light-dark box and elevated zero maze (anxiety [8]; acute and chronic treatment): anxiolytic effects; decrease of cocaine self-administration [3]: effective at decreasing cocaine self-administration; effect on cognition performance (cognition performance): did not have any effect; effect on spontaneous locomotor activity, rotarod, body temperature and traction test ([7]; 0.1-200 mg/kg): had no effect; anxiolytic-like effects (anxiety [9]): exhibited anxiolytic-like effects
CC(C)(C=O)Cc1cc(C(C)(C)C)c(O)c(C(C)(C)C)c1 [CGP13501]	–	–	–	effect on their own at GABAB receptors (GABABR1R2): no effect on their own
